Test results: US7101878B1 (Agouron Pharmaceuticals, Inc., priority 1998, dated 2006)
Like-named read-outs stand apart in the source and are kept apart here.

Biological target: T1, human GnRH receptor (Homo sapiens, UniProt P30968)
T1 construct: expressed in transfected cells; host or cells: HEK 293 (hGnRH-R/293, from Dr. Stuart Sealfon)
T1 sequence (P30968 1-328): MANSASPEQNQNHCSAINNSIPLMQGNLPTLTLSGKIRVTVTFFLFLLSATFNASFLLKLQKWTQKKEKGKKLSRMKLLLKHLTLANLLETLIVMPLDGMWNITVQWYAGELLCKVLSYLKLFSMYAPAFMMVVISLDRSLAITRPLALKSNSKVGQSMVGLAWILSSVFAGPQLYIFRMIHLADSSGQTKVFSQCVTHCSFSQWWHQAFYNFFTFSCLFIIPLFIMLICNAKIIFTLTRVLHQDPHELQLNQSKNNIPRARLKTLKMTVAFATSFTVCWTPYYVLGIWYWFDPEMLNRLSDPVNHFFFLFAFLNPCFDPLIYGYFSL
Test: Radioligand binding, 125I-GnRH-A displacement, membranes of HEK 293 cells with human GnRH receptor
Summary of the method: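 Bound tracer was separated by filtration through polyethyleneimine-soaked GF/C filters and counted by liquid scintillation. IC50 from curve fitting; other species were tested under the same conditions.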

[1] = 1 uM, read-out: % Inhib. @ 1 uM hGnRH
[2] = 1 h, repeat of % Inhib. at 1 uM, read-out: Repeats @ 1 uM hGnRH

Row | inhibition at 1 µM [1] | inhibition at 1 µM [2] | % Inhib. @ 1 uM hGnRH (1 uM) | Repeats @ 1 uM hGnRH (repeat of % Inhib. at 1 uM) | Compound
1 | 85% | 85% |  |  | COC(=O)CCCCCNC(=O)c1ccc(Cc2cc3c(cc2C)C(C)(C)CCC3(C)C)o1 [drawing 1059]
2 |  |  | 101% | 99 | Cc1cc2c(cc1Cc1ccc(C(=O)NCc3nc4ccccc4[nH]3)o1)C(C)(C)CCC2(C)C [drawing 1060]
3 | 44% | 49% |  |  | COc1cc(CCNC(=O)c2ccc(Cc3cc4c(cc3C)C(C)(C)CCC4(C)C)o2)cc(OC)c1O [drawing 1061]
4 | 26% | 87% |  |  | Cc1cc2c(cc1Cc1ccc(C(=O)NCC3CCN(C(=N)N)CC3)o1)C(C)(C)CCC2(C)C [drawing 1063]
5 | 79% | 91% |  |  | Cc1cc2c(cc1Cc1ccc(C(=O)NCC3CCN(c4ccnc(Cl)n4)CC3)o1)C(C)(C)CCC2(C)C [drawing 1064]
6 | 69% | 74% |  |  | Cc1cc2c(cc1Cc1ccc(C(=O)NCc3cccnc3)o1)C(C)(C)CCC2(C)C [drawing 1067]
7 | 67% | 69% |  |  | Cc1cc2c(cc1Cc1ccc(C(=O)NCCOCCO)o1)C(C)(C)CCC2(C)C [drawing 1068]
8 | 82% | 85% |  |  | Cc1cc2c(cc1Cc1ccc(C(=O)NCc3ccccc3)o1)C(C)(C)CCC2(C)C [drawing 1070]
9 |  |  | −6% | 2 | Cc1cc2c(cc1Cc1ccc(C(=O)NC(c3ccccc3)c3ccccc3)o1)C(C)(C)CCC2(C)C [drawing 1071]
10 |  |  | 56% | 57 | Cc1cc2c(cc1Cc1ccc(C(=O)NC(c3ccccc3)C(O)c3ccccc3)o1)C(C)(C)CCC2(C)C (stereo not shown) [drawing 1072]
11 |  |  | −11% | −8 | Cc1cc2c(cc1Cc1ccc(C(=O)NC(c3ccccc3)C(O)c3ccccc3)o1)C(C)(C)CCC2(C)C (stereo not shown) [drawing 1073]
12 |  |  | −7% | −7 | Cc1cc2c(cc1Cc1ccc(C(=O)NC(c3ccccc3)c3ccccc3)o1)C(C)(C)CCC2(C)C [drawing 1077]
13 | 86% | 88% |  |  | COc1ccccc1CNC(=O)c1ccc(Cc2cc3c(cc2C)C(C)(C)CCC3(C)C)o1 [drawing 1078]
14 | 59% | 60% |  |  | Cc1cc2c(cc1Cc1ccc(C(=O)NCCc3ccccc3)o1)C(C)(C)CCC2(C)C [drawing 1079]
15 | 70% | 72% |  |  | Cc1cc2c(cc1Cc1ccc(C(=O)NCCNc3ccccc3)o1)C(C)(C)CCC2(C)C [drawing 1080]
16 | 79% | 82% |  |  | Cc1cc2c(cc1Cc1ccc(C(=O)NCc3ccco3)o1)C(C)(C)CCC2(C)C [drawing 1089]
17 | 81% | 89% |  |  | Cc1cc2c(cc1Cc1ccc(C(=O)NCc3ccccc3F)o1)C(C)(C)CCC2(C)C [drawing 1090]
18 | 68% | 68% |  |  | Cc1cc2c(cc1Cc1ccc(C(=O)NCc3ccc(Cl)cc3)o1)C(C)(C)CCC2(C)C [drawing 1091]
19 |  | 6% | −1% |  | Cc1cc2c(cc1Cc1ccc(C(=O)N3CCN(c4ccccc4)CC3)o1)C(C)(C)CCC2(C)C [drawing 1092]

Row | inhibition at 1 µM [1] | inhibition at 1 µM [2] | % Inhib. @ 1 uM hGnRH (1 uM) | Repeats @ 1 uM hGnRH (repeat of % Inhib. at 1 uM) | Compound
20 | 76% | 83% |  |  | COc1cccc(CNC(=O)c2ccc(Cc3cc4c(cc3C)C(C)(C)CCC4(C)C)o2)c1OC [drawing 1093]
21 | -10% | 13% |  |  | COc1cc(OC)c(CNC(=O)c2ccc(Cc3cc4c(cc3C)C(C)(C)CCC4(C)C)o2)c(OC)c1 [drawing 1094]
22 | 69% | 75% |  |  | COc1ccc(CNC(=O)c2ccc(Cc3cc4c(cc3C)C(C)(C)CCC4(C)C)o2)cc1OC [drawing 1095]
23 | 48% | 55% |  |  | CCOc1ccccc1CNC(=O)c1ccc(Cc2cc3c(cc2C)C(C)(C)CCC3(C)C)o1 [drawing 1096]
24 | 84% | 86% |  |  | Cc1ccccc1CNC(=O)c1ccc(Cc2cc3c(cc2C)C(C)(C)CCC3(C)C)o1 [drawing 1097]
25 | 89% | 92% |  |  | COc1ccc(CNC(=O)c2ccc(Cc3cc4c(cc3C)C(C)(C)CCC4(C)C)o2)cc1 [drawing 1098]
26 | 82% | 85% |  |  | Cc1cc2c(cc1Cc1ccc(C(=O)NCc3cccs3)o1)C(C)(C)CCC2(C)C [drawing 1099]
27 | 62% | 69% |  |  | Cc1cc2c(cc1Cc1ccc(C(=O)NCc3cccc(Cl)c3Cl)o1)C(C)(C)CCC2(C)C [drawing 1102]
28 | 77% | 84% |  |  | Cc1cc2c(cc1Cc1ccc(C(=O)NCc3ccccc3Cl)o1)C(C)(C)CCC2(C)C [drawing 1103]
29 | 55% | 63% |  |  | Cc1cc2c(cc1Cc1ccc(C(=O)NCCc3ccccc3Cl)o1)C(C)(C)CCC2(C)C [drawing 1104]
30 | -4% | 0% |  |  | Cc1cc2c(cc1Cc1ccc(C(=O)N(CCCO)Cc3ccccn3)o1)C(C)(C)CCC2(C)C [drawing 1107]
31 | 61% | 70% |  |  | COc1ccccc1CCNC(=O)c1ccc(Cc2cc3c(cc2C)C(C)(C)CCC3(C)C)o1 [drawing 1114]
32 |  |  | 72% | 72 | Cc1cc2c(cc1Cc1ccc(C(=O)NC(CO)Cc3ccccc3)o1)C(C)(C)CCC2(C)C (stereo not shown) [drawing 1117]
33 | 61% | 71% |  |  | Cc1cc2c(cc1Cc1ccc(C(=O)NCc3cccc4ccccc34)o1)C(C)(C)CCC2(C)C [drawing 1120]
34 |  |  | −6% | 6 | Cc1cc2c(cc1Cc1ccc(C(=O)N3CCN(c4ccccc4)CC3)o1)C(C)(C)CCC2(C)C [drawing 1121]
35 | -2% | 3% |  |  | Cc1cc2c(cc1Cc1ccc(C(=O)N3CCN(c4ncccn4)CC3)o1)C(C)(C)CCC2(C)C [drawing 1124]
36 | 14% | 27% |  |  | Cc1cc2c(cc1Cc1ccc(C(=O)NC3CCCc4ccccc43)o1)C(C)(C)CCC2(C)C (stereo not shown) [drawing 1127]
37 | 38% | 45% |  |  | Cc1cc2c(cc1Cc1ccc(C(=O)NC3CCc4ccccc43)o1)C(C)(C)CCC2(C)C (stereo not shown) [drawing 1129]
38 | 52% | 52% |  |  | Cc1cc2c(cc1Cc1ccc(C(=O)NC(C)CCc3ccccc3)o1)C(C)(C)CCC2(C)C (stereo not shown) [drawing 1130]

Row | inhibition at 1 µM [1] | inhibition at 1 µM [2] | % Inhib. @ 1 uM hGnRH (1 uM) | Repeats @ 1 uM hGnRH (repeat of % Inhib. at 1 uM) | Compound
39 | 68% | 71% |  |  | Cc1cc2c(cc1Cc1ccc(C(=O)NCCCN3CCCC3=O)o1)C(C)(C)CCC2(C)C [drawing 1131]
40 | 53% | 64% |  |  | Cc1cc2c(cc1Cc1ccc(C(=O)NCc3ccc(Cl)cc3Cl)o1)C(C)(C)CCC2(C)C [drawing 1133]
41 | 69% | 71% |  |  | Cc1cc2c(cc1Cc1ccc(C(=O)NCc3ccc(F)cc3)o1)C(C)(C)CCC2(C)C [drawing 1135]
42 | 78% | 84% |  |  | Cc1cc2c(cc1Cc1ccc(C(=O)NCc3cccc(Cl)c3)o1)C(C)(C)CCC2(C)C [drawing 1136]
43 |  |  | 17% | 20 | Cc1cc2c(cc1Cc1ccc(C(=O)NC(CO)Cc3ccccc3)o1)C(C)(C)CCC2(C)C (stereo not shown) [drawing 1137]
44 | 53% | 58% |  |  | Cc1cc2c(cc1Cc1ccc(C(=O)NC(C)c3ccccc3)o1)C(C)(C)CCC2(C)C (stereo not shown) [drawing 1138]
45 | -14% | -6% |  |  | Cc1cc2c(cc1Cc1ccc(C(=O)NCc3ccc(C(C)(C)C)cc3)o1)C(C)(C)CCC2(C)C [drawing 1140]
46 | 58% | 63% |  |  | COc1cccc(CCNC(=O)c2ccc(Cc3cc4c(cc3C)C(C)(C)CCC4(C)C)o2)c1OC [drawing 1147]
47 | 44% | 48% |  |  | COc1cc(CCNC(=O)c2ccc(Cc3cc4c(cc3C)C(C)(C)CCC4(C)C)o2)cc(OC)c1 [drawing 1148]
48 | 49% | 58% |  |  | Cc1cc2c(cc1Cc1ccc(C(=O)NC3CC3)o1)C(C)(C)CCC2(C)C [drawing 1149]
49 |  |  | 16% | 32 | Cc1cc2c(cc1Cc1ccc(C(=O)NC3CCCc4ccccc43)o1)C(C)(C)CCC2(C)C (stereo not shown) [drawing 1150]
50 | 55% | 61% |  |  | COCCNC(=O)c1ccc(Cc2cc3c(cc2C)C(C)(C)CCC3(C)C)o1 [drawing 1155]
51 | 16% | 24% |  |  | Cc1cc2c(cc1Cc1ccc(C(=O)NCCc3ccc(Br)cc3)o1)C(C)(C)CCC2(C)C [drawing 1171]
52 | 42% | 53% |  |  | COc1ccc(CCNC(=O)c2ccc(Cc3cc4c(cc3C)C(C)(C)CCC4(C)C)o2)cc1 [drawing 1173]
53 | 93% | 95% |  |  | Cc1cccc(CNC(=O)c2ccc(Cc3cc4c(cc3C)C(C)(C)CCC4(C)C)o2)c1 [drawing 1174]
54 | 87% | 90% |  |  | Cc1ccc(CNC(=O)c2ccc(Cc3cc4c(cc3C)C(C)(C)CCC4(C)C)o2)cc1 [drawing 1175]
55 | 1% | 1% |  |  | Cc1cc2c(cc1Cc1ccc(C(=O)NCCO)o1)C(C)(C)CCC2(C)C [drawing 1178]
56 | 42% | 44% |  |  | Cc1cc2c(cc1Cc1ccc(C(=O)NCCC#N)o1)C(C)(C)CCC2(C)C [drawing 1179]
